The test system of data set [1] is apomorphine-induced climbing behavior of mice. Kind of data set: Apomorphine-induced climbing behavior of mice. The format is in vivo.
For data set [2], the system named is spontaneous locomotor activity in mice. Kind of data set: Inhibition of spontaneous locomotor activity in mice. The note with it: for times less active than compound A, inhibition of spontaneous locomotor activity: mice, relative to compound A. The format is in vivo.
A short description of data set [3]: Acute toxicity in mice, intravenous administration. Conditions: mouse, in vivo. The procedure: (§1) The invention further includes 1-(2-chloro-7-fluoro-10, 11-dihydrodibenzo (b,f) thiepin-10-yl)-4-(2-(1,3-dioxan-2-yl) ethyl)piperazine, which is also tested as the methanesulfonate (compound C).
In data set [4] the test system is apomorphine-elicited agitation and stereotypes in rats. Kind of data set: Antiapomorphine action in rats. The class given is in vivo. Conditions: for antiapomorphine effect: 50 mg/kg, oral; for effect on apomorphine-elicited agitation / effect on apomorphine-elicited stereotypes: 20 and 50 mg/kg, by 2 h after administration.
The target of data set [5] is T1, dopamine receptors in corpus striatum (Rattus norvegicus, UniProt P61169).
T1 construct: dopamine receptors in the two brain structures; from tissue; host or cells: rat brain, corpus striatum
The experiment in a line: Inhibition of 3H-spiperone binding, corpus striatum.

The next data set in a line: in vivo. The note with it: mouse, po.
In data set [6] the test system is dopamine levels in corpus striatum. The experiment in a line: Dopamine level in corpus striatum of the rat brain. The format is in vivo. Conditions: for dopamine level, striatum: 20 mg/kg, in words.
The next data set deals with rats. Kind of data set: Cataleptic activity in rats. Conditions: for cataleptic activity: rats, 50 mg/kg, oral.
A further data set can be described thus: Solubility in water. The format is physicochemical.
A short description of data set [7]: Rota-rod test in mice (motor coordination). The note with it: mouse, po. Background: In the rotarod test animals must keep their balance on a rotating rod.
A short description of data set [8]: Overall antidopaminergic / neuroleptic activity and pharmacological profile. The note with it: in words.
Data set [9] concerns homovanillic acid in corpus striatum. Kind of data set: Homovanillic acid level in corpus striatum of the rat brain. The format is in vivo.
In data set [10] the test system is cataleptogenic effect of perphenazine in rats. The experiment in a line: Potentiation of the cataleptogenic effect of perphenazine in rats. The class given is in vivo. The note with it: 50 mg/kg, oral. The protocol:
A further compound of the invention is 1-(2-chloro-7-fluoro-10, 11-dihydrodibenzo (b,f) thiepin-10-yl)-4-(2-(1,3-dioxolan-2-yl)ethyl)piperazine, which also was tested as the methanesulfonate (compound B). This compound and the following ones were likewise administered orally, and the data is calculated per bases.
as §1

The subject of data set [11] is dopamine levels in tuberculum olfactorium. Kind of data set: Dopamine level in tuberculum olfactorium of the rat brain. The class given is in vivo. Conditions: 20 mg/kg, in words.
Data set [12] deals with apomorphine emesis in dogs. The experiment in a line: Inhibition of apomorphine emesis in dogs. The class given is in vivo.
Data set [13] can be described thus: Acute toxicity in rats (oral). Conditions: rat, in vivo.
A short description of data set [14]: Rota-rod test in rats (motor coordination). Conditions: rat, po.
The next data set concerns mice. Conditions: mouse, in vivo, po.
Data set [15] relates to homovanillic acid in tuberculum olfactorium. Kind of data set: Homovanillic acid level in tuberculum olfactorium of the rat brain. The note with it: 3 h after the administration. The class given is in vivo.
A further data set has as its system motility of mice. The note with it: Mus musculus, po, read-out: medium effective dose, motility of mice.

The source of these data is US4678788A, “N-substituted 2-chloro-7-fluoro-10-piperazino-10,11-dihydrodibenzo (B,F) thiepins and acid addition salts thereof” (SPOFA, Spojene Podniky Pro Zdravotnickou Vyrobu, priority 1985, dated 1987).

As usually defined, the LD50 is the dose at which mortality reaches 50%. A word on the TD50: it is the dose at which the toxic effect under study appears in half of the subjects. A lower TD50 goes with greater toxicity. For orientation: pIC50 means the negative decadic logarithm of the IC50, by convention in mol/L.

pIC50: −log10 of the molar value.

T1 sequence (P61169 whole entry): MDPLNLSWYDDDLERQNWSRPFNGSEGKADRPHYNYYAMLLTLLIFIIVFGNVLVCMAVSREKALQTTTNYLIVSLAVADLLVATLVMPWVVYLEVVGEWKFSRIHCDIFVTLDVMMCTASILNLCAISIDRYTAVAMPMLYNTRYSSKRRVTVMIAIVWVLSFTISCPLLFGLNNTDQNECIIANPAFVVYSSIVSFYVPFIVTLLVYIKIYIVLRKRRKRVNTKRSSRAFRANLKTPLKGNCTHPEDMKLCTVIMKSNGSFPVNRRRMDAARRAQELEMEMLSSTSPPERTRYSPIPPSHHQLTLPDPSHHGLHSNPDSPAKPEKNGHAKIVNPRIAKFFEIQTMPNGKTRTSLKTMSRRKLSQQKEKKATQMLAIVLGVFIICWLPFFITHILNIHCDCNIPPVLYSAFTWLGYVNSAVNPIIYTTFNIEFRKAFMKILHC

Consider `CN(C)CCCN1c2ccccc2Sc2ccc(Cl)cc21` [chlorpromazine, reference compound], for which, in data set [1] (mice, % of activity of compound A), the “activity relative to compound A, climbing behavior” value is “approx. 50%”. Moreover, the “times less active than compound A, inhibition of spontaneous locomotor activity” value in data set [2] turned out to be 5 times.

Regarding `Fc1ccc2c(c1)Sc1ccc(Cl)cc1CC2N1CCN(CCC2OCCCO2)CC1` (stereo not shown) [Compound C, 1-(2-chloro-7-fluoro-10, 11-dihydrodibenzo (b,f)thiepin-10-yl)-4-(2-(1,3-dioxan-2-yl)ethyl)piperazine], the 50% lethal dose (LD50) in data set [3] is 77.6 mg/kg; in the data set “in vivo” (LD50, mice, per base) it was above 500 mg/kg. Moreover, the antiapomorphine effect entry in data set [4] is “does not reveal any antiapomorphine effect”. In addition, the “affinity to dopamine receptors in striatum, release of 3H spiperone” value in [5] (striatum, in words, compared with clozapine) is reported as “approximately the same as with clozapine”. The “dopamine level, striatum” value in data set [6] was “the dopamine level is not affected”. Moreover, the cataleptic activity entry in the data set with rats is reported as “no cataleptic effect”. Moreover, the solubility in water result in “Solubility in water” (monomethanesulfonate) is given as “excellently water-soluble”; in the data set “Solubility in water” (neutral maleate) it was “poorly soluble in water”; in the data set “Solubility in water” (neutral maleate, listed as Example 4), “only very slightly soluble in water”. The molecule further returned a TD50 in data set [7] of 2.86 mg/kg. Also, in data set [8], the “pharmacological profile compared with compound A” value is recorded as “approximately comparable”. In addition, in data set [9] (rat, 20 mg/kg, 3 h), the “increase of homovanillic acid level in striatum” value (“increase” below) stood at 400%. For the same molecule, the “potentiation of the cataleptogenic effect of perphenazine” value in data set [10] is “only mildly potentiates the cataleptogenic effect of perphenazine”.

In the case of `CN1CCN(C2=Nc3cc(Cl)ccc3Nc3ccccc32)CC1` [clozapine, 8-chloro-11-(4-methylpiperazine)-5H-dibenzo (b,e)-(1,4)diazepine, reference compound], in data set [4], the “effect on apomorphine-elicited agitation” value is “effects neither agitation nor stereotypes” and the “effect on apomorphine-elicited stereotypes” value was “effects neither agitation nor stereotypes”. The “dopamine level, striatum” value in [6] is listed as “slightly decreases dopamine levels”. For the same molecule, the cataleptic activity entry in the data set on rats is on record as “behaves similarly”. In addition, in data set [11], the “dopamine level, tuberculum olfactorium” value is “slightly decreases dopamine levels”. The “increase” value in [9] (rat, 20 mg/kg, 3 h) was 200%. The “times less active than compound A, inhibition of spontaneous locomotor activity” value in data set [2] is “approx. 4 times”.

Consider `NC(=O)CCN1CCN(C2Cc3cc(Cl)ccc3Sc3cc(F)ccc32)CC1` (stereo not shown) [Compound A], for which the minimal effective dose worked out at 2 mg/kg in data set [12] (Canis lupus familiaris, oral, by 4 h after the administration, read-out: threshold activity dose, inhibition of apomorphine emesis); 5 mg/kg in data set [9] (Rattus norvegicus, po, 3 h, read-out: threshold dose significantly increasing homovanillic acid concentration, corpus striatum); 2 mg/kg in [15] (oral, read-out: threshold dose significantly increasing homovanillic acid concentration, tuberculum olfactorium). The “inhibition of apomorphine emesis, duration” value in data set [12] (within 24 h) is on record as “within 24 h the effect disappears”. Besides, the “effect on apomorphine-elicited agitation” value in data set [4] was “significantly inhibits the agitation”. Moreover, the “effect on apomorphine-elicited stereotypes” value in [4] is recorded as “does not affect the apomorphine-elicited stereotypes”. In addition, in [5], the pIC50 was 7.30. Besides, the LD50 at 48 h in the data set “in vivo” (LD50, female mice, per base) turned out to be 316 mg/kg; in “in vivo” (LD50, male mice, per base) it was 336 mg/kg. Also, the “dopamine level, striatum” value in data set [6] was “does not significantly affect the dopamine levels”. Moreover, the “cataleptic activity (general statement)” value with rats (compounds of the invention, in words) is reported as “noncataleptic”. Further, the cataleptic activity result in the data set on rats is listed as “lacks cataleptic activity”. For the same molecule, the results for the solubility in water entry in the data set “Solubility in water” (monomethanesulfonate) and in “Solubility in water” (neutral maleate) were “excellently water-soluble” and “poorly soluble in water”, respectively. For the same molecule, the 50% lethal dose (LD50) in [13] was 654 mg/kg. Besides, the TD50 in data set [7] was determined as 2 mg/kg; in data set [14], 19.5 mg/kg. Further, the “dopamine level, tuberculum olfactorium” value in data set [11] is reported as “does not significantly affect the dopamine levels”. Further, the “level of homovanillic acid, corpus striatum” value in data set [9] (rat, 3 h after the administration) is on record as “intensively increases”. For the same molecule, the ED50 came to 2.9 mg/kg in data set [1] (Mus musculus, po, read-out: medium effective dose PD50, apomorphine-induced climbing behavior) and 1.05 mg/kg in data set [2] (Mus musculus, po, read-out: medium active dose D50, inhibition of spontaneous locomotor activity). Further, the “LD50 on longer evaluation of the toxicity test” value in the data set on mice is “lower LD50 values”. For the same molecule, the “level of homovanillic acid, tuberculum olfactorium” value in data set [15] was “intensively increases”.

On to `NC(CCN1CCN(C2Cc3cc(Cl)ccc3Sc3cc(F)ccc32)CC1)=NO` (stereo not shown) [Compound D], for which the LD50 in the data set “in vivo” was 320 mg/kg. The “pharmacological profile compared with compound A” value in data set [8] is listed as “approximately comparable”. For the same molecule, the “increase” value in [9] (rat, 80 mg/kg, 3 h, oral) was “more than 300%”. In the data set with motility of mice, the ED50 was 50 mg/kg.

With `Fc1ccc2c(c1)Sc1ccc(Cl)cc1CC2N1CCN(CCC2OCCO2)CC1` (stereo not shown) [Compound B, 1-(2-chloro-7-fluoro-10, 11-dihydrodibenzo (b,f)thiepin-10-yl)-4-(2-(1,3-dioxolan-2-yl)ethyl)piperazine], in [4], the antiapomorphine effect entry is “only a slight indication of antiapomorphine effect”. Further, in “in vivo” (LD50, mice, per base), the LD50 worked out at 350 mg/kg. Moreover, in data set [6] (80 mg/kg, 3 h), the “lowering of dopamine level in striatum” value came to 25%. For the same molecule, the cataleptic activity result in the data set with rats is reported as “no cataleptic effect”. Besides, the solubility in water entry was “readily water-soluble” in the data set “Solubility in water” (monomethanesulfonate); “excellently water-soluble” in “Solubility in water” (monomethanesulfonate, listed as Example 3); “slightly soluble in water” in the data set “Solubility in water” (neutral maleate). Moreover, the solubility in the data set “Solubility in water” (water, monomethanesulfonate, aqueous solution, read-out: concentration of aqueous solutions provided) is above 100 mg/mL. The molecule further registered a TD50 in [7] of 3.5 mg/kg. In addition, the “pharmacological profile compared with compound A” value in [8] was “approximately comparable”. Moreover, the “increase” value in data set [9] (rat, 80 mg/kg, 3 h, oral) was determined as 504%. In addition, the “potentiation of the cataleptogenic effect of perphenazine” value in [10] is reported as “only mildly potentiates the cataleptogenic effect of perphenazine”.
